Measured values reported in patent US9511072B2, “Methods of modulating cell proliferation and cyst formation in polycystic kidney and liver diseases” (The Medical College of Wisconsin, Inc., priority 2006, dated 2016).

How the values were obtained:
[1] = target: T1, Cyp4a12 (Mus musculus, UniProt Q91WL5); test: 20-HETE production assay with lysates of Cyp4a12 over-expressing Balb/C cells; format: biochemical, murine; conditions: 1 μM during the 20-HETE production assay
T1 construct: Murine full-length Cyp4a10 (cDNA clone MGC:58977) and Cyp4a12 (cDNA clone MGC:25972) cDNA clones were purchased from ATCC; expressed in transfected cells; host or cells: conditionally immortalized non-cystic Balb/C (+/+) mouse renal epithelial cells transduced with the lentiviral vector pHR(+)c.Ub.CYP4A12.R(-)W(+); protein lysates
T1 sequence (Q91WL5 38-508): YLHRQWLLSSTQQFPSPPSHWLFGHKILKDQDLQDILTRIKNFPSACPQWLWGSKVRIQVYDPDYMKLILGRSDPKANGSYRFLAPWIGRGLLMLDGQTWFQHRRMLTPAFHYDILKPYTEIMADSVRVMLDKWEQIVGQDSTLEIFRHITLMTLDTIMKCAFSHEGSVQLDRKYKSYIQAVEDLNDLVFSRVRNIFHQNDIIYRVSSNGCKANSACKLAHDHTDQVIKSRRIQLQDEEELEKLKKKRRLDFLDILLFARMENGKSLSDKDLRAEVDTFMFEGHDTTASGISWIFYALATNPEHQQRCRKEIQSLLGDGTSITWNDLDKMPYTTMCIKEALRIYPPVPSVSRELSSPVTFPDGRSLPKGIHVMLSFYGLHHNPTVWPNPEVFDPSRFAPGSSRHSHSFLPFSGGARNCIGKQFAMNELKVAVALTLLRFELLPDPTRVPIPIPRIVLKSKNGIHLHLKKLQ
Description: (§1) Microsomes were isolated from the cystic BPK and non-cystic Balb/C mouse kidneys as described by Ito O et al. (Am J Physiol Regul Integr Comp Physiol, 280:R822-30, 2001). For the BPK and Balb/C cells, protein lysates were harvested by homogenization and subsequent sonication of the cell pellets. For the 20-HETE production assay, the isolated protein (500 μg) was incubated in 0.5 mL of 100 mM potassium phosphate buffer containing 40 μM cold arachidonic acid and 2 mM NADPH. In some samples, the 20-HETE synthesis inhibitor, HET-0016, was added at a concentration of 1 μM. The reaction was incubated at 37° C. and equilibrated with 100% O2 for 30 minutes. The reaction was stopped by acidification to pH 3.5 with 1M formic acid. The lipids were extracted in the presence of 20-HETE-d6 (2 ng) using 3:1 ethyl acetate:water and dried down under nitrogen. The samples were reconstituted in 1:1 methanol:water and the production of 20-HETE was measured using a liquid chromatograph-triple quadrupole mass spectrometer (ABI 3000, Applied Biosystems, Inc., Foster City, Calif.) as described in Williams J M et al. Hypertension, 49:687-94, 2007.
The functional activity of the cytochrome P450 4A isoforms was determined using liquid chromatography coupled to mass spectrometry in the 20-HETE production assay (FIG. 7B). […]

[2] = tested on: 20-HETE synthesis (cytochrome P450 4A and 4F isoforms); test: 20-HETE production by renal microsomes of BPK mice dosed with HET-0016; format: in vivo, mouse
Description: as §1
To further examine the biological role of 20-HETE in the epithelial cell proliferation, post-natal day 7, 10 or 21 day old BPK mice were treated with an intraperitoneal injection of vehicle or HET-0016 (10 mg/kg/day) 2 hours prior to sacrifice at which point the kidneys were removed for measurement of 20-HETE synthesis.

[3] = tested on: EGFR phosphorylation in BPK renal tissues; test: Western blot of EGFR phosphorylation in BPK renal tissue after chronic treatment; format: in vivo, mouse; conditions: BPK mice, ip 10 mg/Kg/day, PN-7 to PN-20, medulla region
Excerpt: The BPK model, a murine model of ARPKD, arose as a spontaneous mutation in an inbred colony of Balb/c mice and has been extensively characterized (Nauta J et al. Pediatr Nephrol 1993, 7:163-72; Nauta J et al. Pediatr Res 1995, 37:755-63; and Sweeney W E et al. Kidney Int 2003, 64:1310-9). Affected animals die at postnatal day (PN) 24 (average) with a range of PN-21 to PN-29 days. Extrarenal manifestations include biliary proliferation and ductal ectasia (BDE). Balb/c controls were utilized in all experiments. All animal experiments were conducted in accordance with policies of the NIH Guide for the Care and Use of Laboratory Animals and the Institutional Animal Care and Use Committee (IACUC) of the Medical College of Wisconsin. Western blot analysis of EGFR phosphorylation was conducted for BPK renal tissues following 13 days (PN-7 to PN-20) of treatment with vehicle (ip) (lane A of FIG. 10) or HET0016 (ip, 10 mg/Kg/day) (lane B or FIG. 10). […] The reduced phosphorylation of the EGFR directly correlates with the reduced size of the HET0016-treated cystic kidney, reduced KW/BW ratio, and improved morphology of the HET0016-treated cystic kidney observed in the immunohistochemistry study described above in Example 3.

[4] = tested on: cystic BPK cells; test: BrdU incorporation in cystic BPK cells; format: cell-based, mouse; conditions: 36 hours, vehicle 118
Description: To determine the level of proliferation in the cystic BPK cells, chemically dissimilar inhibitors of cytochrome P450 4A (CYP4A) and 4F (CYP4F) inhibitors, specifically HET-0016 (10 and 20 μM) and DDMS (10 μM), were incubated for 36 hours with the BPK cells. Three hours prior to the harvesting of the cells, 5-bromo-2′-deoxyuridine (BrdU) at a concentration of 30 μM was added to determine the level of cell cycle inhibition. The cells were subsequently methanol fixed and BrdU-positive cells were identified by immunohistology with biotinylated monoclonal anti-BrdU antibody (Zymed, South San Francisco, Calif.). Data were expressed as the percentage of BrdU-labeled cells per 500 counted cells.

N-hydroxy-N-(4-butyl-2-methylphenyl)-formamidine [HET0016]
inhibition of 20-HETE synthesis by over-expressed Cyp4a12 [1]: > 70%
effect on other metabolites of arachidonic acid formed by the kidney ([2]; 10 mg/kg/day i.p.): no apparent inhibition
inhibition of the formation of 20-HETE ([2]; 10 mg/kg/day i.p. 2 hours prior to sacrifice, renal microsomes): > 95%
production of 20-HETE ([2]; 10 mg/kg/day i.p. 2 hours prior to sacrifice, renal microsomes, vehicle 1.06±0.33): 0.04±0.02 pmoles/min/mg protein
phosphorylation (activation) of EGFR in renal tissue [3]: reduced the phosphorylation (activation) of EGFR
BrdU-positive cells per 500 total cells counted ([4]; 10 μM): 52 BrdU(+) cells
BrdU-positive cells per 500 total cells counted ([4]; 20 μM): 38 BrdU(+) cells
